Results published in patent US9884063B2, “Amido-substituted azole compounds” (Bayer Pharma Aktiengesellschaft, priority 2014, dated 2018).

Assays:
[1] = tested on: wildtype Wnt signaling cascade; assay: HEK293 TOP Assay (Super TopFlash luciferase reporter, Wnt-3a stimulated); format: cell-based; settings: Homo sapiens, HEK293, 16 h
Description: In order to discover and characterize small molecules which inhibit the wildtype Wnt pathway, a cellular reporter assay was employed. The corresponding assay cell was generated by transfection of the mammalian cell line HEK293 (ATCC, #CRL-1573) with the Super TopFlash vector (Morin, Science 275, 1997, 1787-1790; Molenaar et al., Cell 86 (3), 1996, 391-399). The HEK293 cell line is cultivated at 37° C. and 5% CO2 in DMEM (Life Technologies, #41965-039), supplemented with 2 mM glutamine, 20 mM HEPES, 1.4 mM pyruvate, 0.15% Na-bicarbonate and 10% foetal bovine serum (GIBCO, #10270). Stable transfectants were generated by selection with 300 μg/ml Hygromycin.
(§1) In preparation of the assay, the two cell lines were plated 24 hrs before beginning the test at 10000 cells per well in a 384 micro titre plate (MTP) in 30 μl growth medium. […] The recombinant human Wnt-3a was thereby applied between 2500 and 5 ng/ml in two-fold dilution steps.
(§2) Selective inhibitory activity for small molecules on the wildtype Wnt pathway was determined after parallel incubation of both (TOP and FOP) HEK293 reporter cell lines with a compound dilution series from 50 μM to 15 nM in steps of 3.16-fold dilutions in CAFTY buffer (130 mM sodium chloride, 5 mM potassium chloride, 20 mM HEPES, 1 mM magnesium chloride, 5 mM sodium bicarbonate, pH 7.4) containing 2 mM Ca^2+ and 0.01% BSA.
(§3) The compounds were thereby serially prediluted in 100% DMSO and thereafter 50 fold into the CAFTY compound dilution buffer (described above).

[2] = tested on: HEK293 FOP control reporter cell line; assay: HEK293 FOP Assay (FOP control vector luciferase reporter); format: cell-based; settings: Homo sapiens
Description: In a parallel approach, HEK293 cells were cotransfected with the FOP control vector and pcDNA3. The FOP vector is identical to the TOP construct, but it contains instead of functional TCF elements a randomized, non-functional sequence. For this transfection a stable transfected cell line was generated as well, based on selection with Geneticin (1 mg/ml).
as §1, §2, §3

[3] = HEK293 TOP reporter cell line, Wnt-3a at EC50, 16 hours incubation, compound dilution series 50 μM to 15 nM
[4] = HEK293 FOP control reporter cell line, 16 hours incubation, compound dilution series 50 μM to 15 nM
[5] = HEK293 TOP reporter cells, Wnt3a at EC50, 16 hours, luciferase
[6] = HEK293 FOP control reporter cells, 16 hours, luciferase, dilution series from 50 μM

Structure (SMILES) | IC50 [1, 3] [µM] | IC50 [1, 5] [µM] | IC50 [2, 4] [µM] | IC50 [2, 6] [µM]
CNC(=O)c1nc[nH]c1C(=O)Nc1ccc(NC(=O)c2cc(C)ccc2C)cc1 [Example 307, N^5-{4-[(2,5-dimethylbenzoyl)amino]phenyl}-N^4-methyl-1H-imidazole-4,5-dicarboxamide] | 1.08 | – | 18 | –
CC1CCN(CC(C)(C)NC(=O)c2[nH]cnc2C(=O)Nc2ccc(NC(=O)c3ccccc3Cl)cc2)CC1 [Example 158, N^4-{4-[(2-chlorobenzoyl)amino]phenyl}-N^5-[2-methyl-1-(4-methylpiperidin-1-yl)propan-2-yl]-1H-imidazole-4,5-dicarboxamide] | 1.2 | – | 29 | –
CNC(=O)c1nc[nH]c1C(=O)Nc1ccc(NC(=O)c2cccc(Cl)c2)cc1 [Example 325, N^5-{4-[(3-chlorobenzoyl)amino]phenyl}-N^4-methyl-1H-imidazole-4,5-dicarboxamide] | 4.9 | – | 10 | –
CC(CNC(=O)c1[nH]cnc1C(=O)Nc1ccc(NC(=O)c2ccccc2Cl)cc1)N1CCN(C)CC1 (centres unmarked) [Example 186, N^4-{4-[(2-chlorobenzoyl)amino]phenyl}-N^5-[2-(4-methylpiperazin-1-yl)propyl]-1H-imidazole-4,5-dicarboxamide] | 0.42 | – | 28 | –
CC1CN(CCNC(=O)c2[nH]cnc2C(=O)Nc2ccc(NC(=O)c3ccccc3Cl)cc2)CC(C)O1 (centres unmarked) [Example 300, N^4-{4-[(2-chlorobenzoyl)amino]phenyl}-N^5-[2-(2,6-dimethylmorpholin-4-yl)-ethyl]-1H-imidazole-4,5-dicarboxamide] | 0.56 | – | 31 | –
CN1CCN(NC(=O)c2[nH]cnc2C(=O)Nc2ccc(NC(=O)c3ccc(F)cc3Cl)cc2)CC1 [Example 177, N^4-{4-[(2-chloro-4-fluorobenzoyl)amino]phenyl}-N^5-(4-methylpiperazin-1-yl)-1H-imidazole-4,5-dicarboxamide] | 0.63 | – | 17 | –
O=C(Nc1ccc(NC(=O)c2nc[nH]c2C(=O)NCCCN2CCC(O)CC2)cc1)c1ccc(F)cc1Cl [Example 275, N^4-{4-[(2-chloro-4-fluorobenzoyl)amino]phenyl}-N^5-[3-(4-hydroxypiperidin-1-yl)propyl]-1H-imidazole-4,5-dicarboxamide] | 0.47 | – | 9.6 | –
CN1CCN(NC(=O)c2[nH]cnc2C(=O)Nc2ccc(NC(=O)c3ccccc3Cl)cc2)CC1 [Example 302, N^4-{4-[(2-chlorobenzoyl)amino]phenyl}-N^5-(4-methylpiperazin-1-yl)-1H-imidazole-4,5-dicarboxamide] | 1.06 | – | 26 | –
CNC(=O)c1nc[nH]c1C(=O)Nc1ccc(NC(=O)c2c(F)cccc2F)cc1 [Example 38, N^5-{4-[(2,6-difluorobenzoyl)amino]phenyl}-N^4-methyl-1H-imidazole-4,5-dicarboxamide] | 2.3 | 2.3 | 14 | 14
CNC(=O)c1nc[nH]c1C(=O)Nc1ccc(NC(=O)c2ccccc2Cl)c(C)c1 [Example 87, N^5-{4-[(2-chlorobenzoyl)amino]-3-methylphenyl}-N^4-methyl-1H-imidazole-4,5-dicarboxamide] | 1.25 | – | 28 | –
CNC(=O)c1nc[nH]c1C(=O)Nc1ccc(NC(=O)c2ccccc2C(F)(F)F)cc1 [Example 58, N^4-methyl-N^5-(4-{[2-(trifluoromethyl)benzoyl]amino}phenyl)-1H-imidazole-4,5-dicarboxamide] | 3.35 | – | 29 | –
CN1CCN(CCCNC(=O)c2[nH]cnc2C(=O)Nc2ccc(NC(=O)c3ccccc3Cl)cc2)CC1 [Example 192, N^4-{4-[(2-chlorobenzoyl)amino]phenyl}-N^5-[3-(4-methylpiperazin-1-yl)propyl]-1H-imidazole-4,5-dicarboxamide] | 0.46 | – | – | –
O=C(Nc1ccc(NC(=O)c2[nH]cnc2C(=O)NCCN2CCCC2=O)cc1)c1ccc(F)cc1Cl [Example 398, N^5-{4-[(2-chloro-4-fluorobenzoyl)amino]phenyl}-N^4-[2-(2-oxopyrrolidin-1-yl)ethyl]-1H-imidazole-4,5-dicarboxamide] | 0.71 | – | – | –
COC(=O)c1nc[nH]c1C(=O)Nc1ccc(NC(=O)c2ccc(F)cc2)c(F)c1 [Example 75, methyl-5-({3-fluoro-4-[(4-fluorobenzoyl)amino]phenyl}carbamoyl)-1H-imidazole-4-carboxylate] | 13 | – | – | –
CNC(=O)c1nc[nH]c1C(=O)Nc1ccc(NC(=O)c2ccc(C)cn2)cc1 [Example 357, N^4-methyl-N^5-(4-{[(5-methylpyridin-2-yl)carbonyl]amino}phenyl)-1H-imidazole-4,5-dicarboxamide] | 11.2 | – | – | –
CNC(=O)c1nc[nH]c1C(=O)Nc1ccc(NC(=O)c2ccc(F)cc2)c(OC)c1 [Example 103, N^5-{4-[(4-fluorobenzoyl)amino]-3-methoxyphenyl}-N^4-methyl-1H-imidazole-4,5-dicarboxamide] | 38 | – | – | –
CNC(=O)c1nc[nH]c1C(=O)Nc1ccc(NC(=O)c2ccccc2N(C)C)cc1 [Example 339, N^5-(4-{[2-(dimethylamino)benzoyl]amino}phenyl)-N^4-methyl-1H-imidazole-4,5-dicarboxamide] | 45.5 | – | – | –
CNC(=O)c1nc[nH]c1C(=O)Nc1ccc(NC(=O)c2cccc(C#N)c2)cc1 [Example 311, N^5-{4-[(3-cyanobenzoyl)amino]phenyl}-N^4-methyl-1H-imidazole-4,5-dicarboxamide] | 50 | – | – | –

The next lines start with results.

IC50 [1, 3] [µM] | IC50 [1, 5] [µM] | Structure (SMILES) | IC50 [2, 4] [µM] | IC50 [2, 6] [µM]
0.68 | – | CC(CNC(=O)c1[nH]cnc1C(=O)Nc1ccc(NC(=O)c2ccc(F)cc2)cc1)N1CCCCC1 (centres unmarked) [Example 183, N^4-{4-[(4-fluorobenzoyl)amino]phenyl}-N^5-[2-(piperidin-1-yl)propyl]-1H-imidazole-4,5-dicarboxamide] | 28 | –
12 | 12 | O=C(Nc1ccc(NC(=O)c2[nH]cnc2C(=O)N2CC3(COC3)C2)cc1)c1ccc(F)cc1 [Example 34, N-{4-[(4-fluorobenzoyl)amino]phenyl}-5-(2-oxa-6-azaspiro[3.3]hept-6-ylcarbonyl)-1H-imidazole-4-carboxamide] | – | ≥ 50
12 | – | CNC(=O)c1nc[nH]c1C(=O)Nc1ccc(NC(=O)c2ccc(F)cc2)c(F)c1 [Example 76, N^5-{3-fluoro-4-[(4-fluorobenzoyl)amino]phenyl}-N^4-methyl-1H-imidazole-4,5-dicarboxamide] | 7.4 | –
5.2 | – | CC(C)(C)CNC(=O)c1[nH]cnc1C(=O)Nc1ccc(NC(=O)c2ccc(F)cc2)cc1 [Example 149, N^5-(2,2-dimethylpropyl)-N^4-{4-[(4-fluorobenzoyl)amino]phenyl}-1H-imidazole-4,5-dicarboxamide] | 22 | –
2.35 | – | CCNC(=O)c1[nH]cnc1C(=O)Nc1ccc(NC(=O)c2ccc(F)cc2)cc1 [Example 137, N^5-ethyl-N^4-{4-[(4-fluorobenzoyl)amino]phenyl}-1H-imidazole-4,5-dicarboxamide] | 8 | –
7.25 | – | CC(C)[C@@H](C)NC(=O)c1[nH]cnc1C(=O)Nc1ccc(NC(=O)c2ccc(F)cc2)cc1 [Example 135, N^4-{4-[(4-fluorobenzoyl)amino]phenyl}-N^5-[(2R)-3-methylbutan-2-yl]-1H-imidazole-4,5-dicarboxamide] | 22 | –
4.9 | – | COC(=O)c1nc[nH]c1C(=O)Nc1ccc(NC(=O)c2ccc(F)cc2)c(C)c1 [Example 90, methyl-5-({4-[(4-fluorobenzoyl)amino]-3-methylphenyl}carbamoyl)-1H-imidazole-4-carboxylate] | 13 | –
2.5 | – | CC(C)(CN1CCCCC1)NC(=O)c1[nH]cnc1C(=O)Nc1ccc(NC(=O)c2ccc(F)cc2)cc1 [Example 156, N^4-{4-[(4-fluorobenzoyl)amino]phenyl}-N^5-[2-methyl-1-(piperidin-1-yl)propan-2-yl]-1H-imidazole-4,5-dicarboxamide] | 15 | –
1.05 | – | O=C(Nc1ccc(NC(=O)c2nc[nH]c2C(=O)NCCF)cc1)c1ccc(F)cc1 [Example 174, N^4-{4-[(4-fluorobenzoyl)amino]phenyl}-N^5-(2-fluoroethyl)-1H-imidazole-4,5-dicarboxamide] | – | –
11 | – | CNC(=O)c1nc[nH]c1C(=O)Nc1ccc(NC(=O)c2cccc(C)c2)cc1 [Example 336, N^4-methyl-N^5-{4-[(3-methylbenzoyl)amino]phenyl}-1H-imidazole-4,5-dicarboxamide] | – | –
